Converted amounts (≈) assume the structure as drawn. The source made the active and inactive calls. The calls are words filed in the database; no cut-off is given here.
Columns and labels:
Saccharomyces cerevisiae [1] = assay: Antifungal activity against recombinant Saccharomyces cerevisiae Y2513 overexpressing ScErg11 Y140H assessed as inhibition of fungal growth incubated for 48 hrs by microbroth dilution method; type: functional
Candida albicans [2] = assay: Antibiofilm activity against Candida albicans SC5314 preformed biofilms incubated for 24 hrs by XTT reduction assay; type: functional, organism-based; details: dose 0.25-64 µg/ml
Saccharomyces cerevisiae [3] = assay: Antifungal activity against recombinant Saccharomyces cerevisiae Y2411 overexpressing ScErg11 assessed as inhibition of fungal growth incubated for 48 hrs by microbroth dilution method; type: functional
[Candida] auris [4] = Antifungal activity against fluconazole-resistant Candida auris 919 assessed as inhibition of fungal growth incubated for 48 hrs by microbroth dilution method; type: functional; details: Candidozyma auris
[5] = biological target: T1, Lanosterol 14-alpha demethylase (Candida albicans (strain SC5314 / ATCC MYA-2876) (Yeast), UniProt P10613); assay: Inhibition of Lanosterol 14-alpha demethylase in Candida albicans SC5314 assessed as reduction in ergosterol level at 8 ug/ml incubated for 8 hrs by GC-MS analysis relative to control; details: at 8 µg/mL
Saccharomyces cerevisiae [6] = assay: Antifungal activity against recombinant Saccharomyces cerevisiae Y525 overexpressing CaMdr1 assessed as inhibition of fungal growth incubated for 48 hrs by microbroth dilution method; type: functional
Candida parapsilosis [7] = assay: Antifungal activity against Candida parapsilosis 22019 assessed as inhibition of fungal growth incubated for 48 hrs by spot assay; type: functional, organism-based; details: dose 0.5-1 µg/ml
[Candida] auris [8] = Antifungal activity against Candida auris 891 assessed as reduction in fungal viability incubated for 48 hrs by spot assay; type: functional, organism-based; details: Candidozyma auris, dose 0.5-1 µg/ml
Cytochrome P450 1A2 = biological target: T2, Cytochrome P450 1A2 (Homo sapiens, UniProt P05177); assay: Inhibition of human CYP1A2 using phenacetin as substrate prewarmed for 10 mins followed by NADPH addition and measured after 10 mins by LC-MS/MS analysis; type: ADME
T2 sequence (P05177 whole entry): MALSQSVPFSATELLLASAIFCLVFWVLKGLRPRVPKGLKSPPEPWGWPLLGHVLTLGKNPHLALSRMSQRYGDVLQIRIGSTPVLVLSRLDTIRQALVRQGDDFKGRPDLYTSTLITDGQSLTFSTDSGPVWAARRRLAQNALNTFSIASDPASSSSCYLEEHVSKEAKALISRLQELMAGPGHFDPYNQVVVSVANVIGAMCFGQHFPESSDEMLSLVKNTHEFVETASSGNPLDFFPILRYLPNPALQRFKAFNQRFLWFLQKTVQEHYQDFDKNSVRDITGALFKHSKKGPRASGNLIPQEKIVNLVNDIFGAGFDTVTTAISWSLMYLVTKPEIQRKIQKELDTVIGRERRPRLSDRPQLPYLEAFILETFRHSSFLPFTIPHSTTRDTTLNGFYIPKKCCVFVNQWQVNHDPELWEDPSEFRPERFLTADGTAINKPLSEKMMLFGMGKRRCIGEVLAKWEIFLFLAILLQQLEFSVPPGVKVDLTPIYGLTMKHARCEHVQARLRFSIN

Candida albicans [9] = assay: Antifungal activity against Candida albicans SC5314 assessed as inhibition of fungal growth at 0.0625 ug/ml measured after 12 hrs by optical density based method; type: functional
Candida albicans [10] = assay: Antifungal activity against Candida albicans 904 assessed as inhibition of fungal growth incubated for 48 hrs by spot assay; type: functional, organism-based; details: dose 0.5-1 µg/ml
Saccharomyces cerevisiae [11] = assay: Resistance index, ratio of MIC for recombinant Saccharomyces cerevisiae Y525 overexpressing CaMdr1 to MIC for recombinant Saccharomyces cerevisiae Y2411 overexpressing ScErg11; type: functional
Candida albicans [12] = assay: Antifungal activity against fluconazole-resistant Candida albicans 901 assessed as inhibition of fungal growth incubated for 48 hrs by microbroth dilution method; type: functional
Cytochrome P450 2C9 = Cytochrome P450 2C9 (Homo sapiens, UniProt P11712); assay: Inhibition of human CYP2C9 using diclofenac as substrate prewarmed for 10 mins followed by NADPH addition and measured after 10 mins by LC-MS/MS analysis; type: ADME
Candida albicans [13] = assay: Antifungal activity against Candida albicans 904 assessed as reduction in fungal viability incubated for 48 hrs by spot assay; type: functional, organism-based; details: dose 0.5-1 µg/ml
Candida parapsilosis [14] = assay: Antifungal activity against Candida parapsilosis 22019 assessed as reduction in fungal viability incubated for 48 hrs by spot assay; type: functional, organism-based; details: dose 0.5-1 µg/ml
Nakaseomyces glabratus [15] = assay: Antifungal activity against Candida glabrata 537 assessed as reduction in fungal viability incubated for 48 hrs by spot assay; type: functional, organism-based; details: dose 0.5-1 µg/ml
Candida albicans [16] = assay: Antifungal activity against Candida albicans SC5314 assessed as inhibition of fungal growth incubated for 48 hrs by spot assay; type: functional, organism-based; details: dose 0.5-1 µg/ml
Nakaseomyces glabratus [17] = assay: Antifungal activity against Candida glabrata 537 assessed as inhibition of fungal growth incubated for 48 hrs by spot assay; type: functional, organism-based; details: dose 0.5-1 µg/ml
[Candida] auris [18] = Antifungal activity against Candida auris 891 assessed as inhibition of fungal growth incubated for 48 hrs by spot assay; type: functional, organism-based; details: Candidozyma auris, dose 0.5-1 µg/ml
[19] = Cytotoxicity against HUVEC cells assessed as cell survival at <16 ug/ml incubated for 24 hrs by CCK-8 assay relative to control; type: toxicity, cell-based; details: human, dose < 16 µg/ml, read-out: Survival
Candida albicans [20] = assay: Antifungal activity against Candida albicans SC5314 assessed as reduction in fungal viability incubated for 48 hrs by spot assay; type: functional, organism-based; details: dose 0.5-1 µg/ml
[21] = Hemolytic activity in rabbit RBC at 64 ug/ml incubated for 1 hr by absorbance based analysis; type: toxicity, cell-based, Oryctolagus cuniculus, Erythrocyte; details: rabbit red blood cells, at 64 µg/mL, read-out: Activity
Saccharomyces cerevisiae [22] = assay: Antifungal activity against recombinant Saccharomyces cerevisiae Y2716 overexpressing CpErg11 Y132F CpCpr assessed as inhibition of fungal growth incubated for 48 hrs by microbroth dilution method; type: functional
[23] = biological target: T1, Lanosterol 14-alpha demethylase; assay: Inhibition of Lanosterol 14-alpha demethylase in Candida albicans SC5314 assessed as remaining ergosterol level at 8 ug/ml incubated for 8 hrs by GC-MS analysis (reference value: 89.76%); details: at 8 µg/mL
[24] = biological target: T1, Lanosterol 14-alpha demethylase; assay: Inhibition of Lanosterol 14-alpha demethylase in Candida albicans SC5314 assessed as increase in lanosterol level at 8 ug/ml incubated for 8 hrs by GC-MS analysis (reference value: 2.79%); design: scale not given: the % may be the effect or the level left; details: at 8 µg/mL
Candida albicans [25] = assay: Antifungal activity against Candida albicans SC5314 assessed as inhibition of fungal growth at 16 ug/ml measured after 24 hrs by optical density based method; type: functional
[26] = biological target: T1, Lanosterol 14-alpha demethylase; assay: Inhibition of Lanosterol 14-alpha demethylase in Candida albicans SC5314 assessed as increase in obtusifoliol level at 8 ug/ml incubated for 8 hrs by GC-MS analysis relative to control; design: scale not given: the % may be the effect or the level left; details: at 8 µg/mL
Candida albicans [27] = assay: Antifungal activity against Candida albicans assessed as reduction in hyphal length at 16 ug/ml; type: functional, organism-based; details: dose 16.0 µg/ml
[28] = biological target: T1, Lanosterol 14-alpha demethylase; assay: Inhibition of Lanosterol 14-alpha demethylase in Candida albicans SC5314 assessed as increase in 14alpha-methylfecosterol level at 8 ug/ml incubated for 8 hrs by GC-MS analysis relative to control; design: scale not given: the % may be the effect or the level left; details: at 8 µg/mL
Candida albicans [29] = assay: Antifungal activity against Candida albicans SC5314 infected in Galleria mellonella larvae assessed as increase in survival rate at 2 mg/kg measured after 10 days post inoculation; type: functional, organism-based; details: time 10.0 day
[30] = biological target: T1, Lanosterol 14-alpha demethylase; assay: Inhibition of Lanosterol 14-alpha demethylase in Candida albicans SC5314 assessed as increase in eburicol level at 8 ug/ml incubated for 8 hrs by GC-MS analysis relative to control; design: scale not given: the % may be the effect or the level left; details: at 8 µg/mL
Candida albicans [31] = assay: Antifungal activity against Candida albicans SC5314 infected in Galleria mellonella larvae assessed as median survival time at 8 mg/kg measured after 10 days post inoculation; type: functional; details: time 10 day

T1 sequence (P10613 whole entry): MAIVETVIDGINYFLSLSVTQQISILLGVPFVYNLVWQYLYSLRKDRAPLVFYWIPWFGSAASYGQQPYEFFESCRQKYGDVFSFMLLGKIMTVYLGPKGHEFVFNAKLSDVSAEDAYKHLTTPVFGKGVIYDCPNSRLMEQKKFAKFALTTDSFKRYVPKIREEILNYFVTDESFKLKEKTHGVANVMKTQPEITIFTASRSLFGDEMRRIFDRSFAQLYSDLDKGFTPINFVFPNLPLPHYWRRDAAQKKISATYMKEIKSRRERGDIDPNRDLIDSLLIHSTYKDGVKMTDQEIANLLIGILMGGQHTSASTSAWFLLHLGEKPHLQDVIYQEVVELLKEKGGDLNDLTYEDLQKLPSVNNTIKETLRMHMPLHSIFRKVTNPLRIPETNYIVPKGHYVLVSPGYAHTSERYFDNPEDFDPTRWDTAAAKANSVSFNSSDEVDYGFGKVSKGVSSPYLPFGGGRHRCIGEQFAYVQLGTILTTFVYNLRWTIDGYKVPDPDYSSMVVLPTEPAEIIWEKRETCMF
Cytochrome P450 2C9, sequence (P11712 whole entry): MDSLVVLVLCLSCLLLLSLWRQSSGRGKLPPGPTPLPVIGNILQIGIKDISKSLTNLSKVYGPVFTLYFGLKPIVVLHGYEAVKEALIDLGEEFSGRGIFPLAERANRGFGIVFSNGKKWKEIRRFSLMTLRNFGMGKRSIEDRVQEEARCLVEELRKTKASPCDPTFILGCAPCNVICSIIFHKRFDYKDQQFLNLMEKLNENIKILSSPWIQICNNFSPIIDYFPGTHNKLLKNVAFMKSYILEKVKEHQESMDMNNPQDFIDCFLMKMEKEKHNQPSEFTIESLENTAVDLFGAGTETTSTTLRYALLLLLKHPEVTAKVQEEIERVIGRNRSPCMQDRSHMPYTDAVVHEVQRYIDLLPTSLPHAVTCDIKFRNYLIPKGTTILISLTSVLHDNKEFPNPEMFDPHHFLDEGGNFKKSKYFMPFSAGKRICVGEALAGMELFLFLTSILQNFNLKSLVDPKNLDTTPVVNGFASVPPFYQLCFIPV

SMILES	MIC (Saccharomyces cerevisiae [1]) [µg/mL]	Activity (Candida albicans [2])	MIC (Saccharomyces cerevisiae [3]) [µg/mL]	MIC ([Candida] auris [4]) [µg/mL]	inhibition (INH) [5]	MIC (Saccharomyces cerevisiae [6]) [µg/mL]	Activity (Candida parapsilosis [7])	Activity ([Candida] auris [8])	IC50 (Cytochrome P450 1A2) [µM]	inhibition at 0.0625 µg/mL (Candida albicans [9]) [%]	Activity (Candida albicans [10])	Ratio (Saccharomyces cerevisiae [11])	MIC (Candida albicans [12]) [µg/mL]	IC50 (Cytochrome P450 2C9) [µM]	Activity (Candida albicans [13])	Activity (Candida parapsilosis [14])	Activity (Nakaseomyces glabratus [15])	viability at 24 h [19] [%]	hemolysis at 1 h, 64 ug/ml [21] [%]	MIC (Saccharomyces cerevisiae [22]) [µg/mL]	further results
C[C@@H](OCC#Cc1ccc(F)cc1F)[C@](O)(Cn1cncn1)c1ccc(F)cc1F	0.031	Dose-Dependent Effect	0.008	16 (≈ 38.2 µM)	~ 100%	0.25	Dose-Dependent Effect	Dose-Dependent Effect	50.7	100	Dose-Dependent Effect	>=16	32 (≈ 76.3 µM)	0.023	Dose-Dependent Effect	Dose-Dependent Effect	Dose-Dependent Effect	> 80	1.32	0.063	Activity (Candida albicans [16]): Dose-Dependent Effect; Activity (Nakaseomyces glabratus [17]): Dose-Dependent Effect; Activity ([Candida] auris [18]): Dose-Dependent Effect; Activity (Candida albicans [20]): Dose-Dependent Effect
C[C@@H](OCC#Cc1ccncc1)[C@](O)(Cn1cncn1)c1ccc(F)cc1F	0.031	Dose-Dependent Effect	0.008	16 (≈ 41.6 µM)	–	0.25	–	–	31.1	100	–	>=16	32 (≈ 83.2 µM)	0.039	–	–	–	> 80	1.36	0.063	Activity [23]: 1.1%
C[C@@H](OCC#Cc1ccc(C#N)cc1)[C@](O)(Cn1cncn1)c1ccc(F)cc1F	0.016	Dose-Dependent Effect	0.008	16 (≈ 39.2 µM)	~ 100%	0.25	Dose-Dependent Effect	Dose-Dependent Effect	42.6	100	Dose-Dependent Effect	>=16	16 (≈ 39.2 µM)	0.034	Dose-Dependent Effect	Dose-Dependent Effect	Dose-Dependent Effect	> 80	1.22	0.063	Activity [24]: 37.18%; inhibition at 16 µg/mL (Candida albicans [25]): 100%; Activity [26]: 12.82%; Activity (Candida albicans [27]): Active; Activity [28]: 36.87%; Activity (Candida albicans [29]): inactive; Activity [30]: 13.13%; MST (Candida albicans [31]): 10 days; Activity (Candida albicans [16]): Dose-Dependent Effect; Activity (Nakaseomyces glabratus [17]): Dose-Dependent Effect; Activity ([Candida] auris [18]): Dose-Dependent Effect; Activity (Candida albicans [20]): Dose-Dependent Effect
